# Reference: patent US20260078120A1, “SUBSTITUTED PYRIDOPYRIMIDINONES” (MIRATI THERAPEUTICS, INC., priority 2022, published 2026)
# Experiments:
# [1] = tested on: T47D (PI3Kα H1047R mutant) cells; assay: CellTiter-Glo 2.0 luminescent cell viability assay, 72 hours, T47D cells; type: cell-based; conditions: Homo sapiens, T47D, 72 h, T47D (PI3Kα H1047R mutant) cells, CellTiter-Glo, approximately 72 hours; read-out: T47D (H1047R mutant) Viability IC50
# In short: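 Cells seeded at 1000 per well overnight were dosed with a 10-concentration, 1:4 series starting at 10 µM and incubated ~72 h at 37° C. Viability was read by CellTiter-Glo 2.0 luminescence after 30 min at room temperature. IC50 came from four-parameter fits of percent vehicle control.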
# [2] = tested on: SKBR3 (PI3Kα wild type) cells; assay: CellTiter-Glo 2.0 luminescent cell viability assay, 72 hours, SKBR3 cells; type: cell-based; conditions: Homo sapiens, SK-BR-3, 72 h, SKBR3 (PI3Kα wild type) cells, CellTiter-Glo, approximately 72 hours; read-out: SKBR3 (WT) Viability IC50
# In short: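 Viability measured via CTG luminescence following roughly 72 hours of compound exposure at 37° C. Dosing used a 10 um starting concentration diluted 1:4 over 10 points; percent-of-vehicle data fitted with a variable-slope four-parameter model for IC50.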
SMILES,IC50 [1] [µM],IC50 [2] [µM]
"Cc1cc(C(C)Nc2ccccc2C(=O)O)c2nc(-c3ccc(=O)n(C)c3)cc(=O)n2c1 (stereo not shown) [Example 11-383, 2-((1-(7-methyl-2-(1-methyl-6-oxo-1,6-dihydropyridin-3-yl)-4-oxo-4H-pyrido[1,2-a]pyrimidin-9-yl)ethyl)amino)benzoic acid]",4.03,> 10
"Cc1cc(C(C)NC2CC(C(=O)O)C2)c2nc(N3CCCCC3)cc(=O)n2c1 (stereo not shown) [Example 11-385, 3-((1-(7-methyl-4-oxo-2-(piperidin-1-yl)-4H-pyrido[1,2-a]pyrimidin-9-yl)ethyl)amino)cyclobutane-1-carboxylic acid]",> 10,> 10
Cc1cc(C(C)NCCC(=O)O)c2nc(N3CCCCC3)cc(=O)n2c1 (stereo not shown) [Example 11-386],> 10,> 10
"Cc1cc(C(C)Nc2cccc(C)c2C(=O)O)c2nc(N3CCCCC3)cc(=O)n2c1 (stereo not shown) [Example 11-390, 2-methyl-6-((1-(7-methyl-4-oxo-2-(piperidin-1-yl)-4H-pyrido[1,2-a]pyrimidin-9-yl)ethyl)amino)benzoic acid]",> 10,> 10
"Cc1cc(C(C)Nc2ccccc2C(=O)O)c2nc(-c3ccc(F)cc3)cc(=O)n2c1 (stereo not shown) [Example 11-391, 2-((1-(2-(4-fluorophenyl)-7-methyl-4-oxo-4H-pyrido[1,2-a]pyrimidin-9-yl)ethyl)amino)benzoic acid]",9.62,> 10
"COc1cccc(-c2cc(=O)n3cc(C)cc(C(C)Nc4ccccc4C(=O)O)c3n2)c1 (stereo not shown) [Example 11-393, 2-((1-(2-(3-methoxyphenyl)-7-methyl-4-oxo-4H-pyrido[1,2-a]pyrimidin-9-yl)ethyl)amino)benzoic acid]",1.29,> 10
"COc1ccccc1-c1cc(=O)n2cc(C)cc(C(C)Nc3ccccc3C(=O)O)c2n1 (stereo not shown) [Example 11-394, 2-((1-(2-(2-methoxyphenyl)-7-methyl-4-oxo-4H-pyrido[1,2-a]pyrimidin-9-yl)ethyl)amino)benzoic acid]",> 10,> 10
"Cc1cc(C(C)Nc2ccccc2C(=O)O)c2nc(-c3ccccc3C)cc(=O)n2c1 (stereo not shown) [Example 11-395, 2-((1-(7-methyl-4-oxo-2-(o-tolyl)-4H-pyrido[1,2-a]pyrimidin-9-yl)ethyl)amino)benzoic acid]",> 10,> 10
"Cc1cc(C(C)Nc2ccccc2C(=O)O)c2nc(-c3ccc(C#N)cc3)cc(=O)n2c1 (stereo not shown) [Example 11-397, 2-((1-(2-(4-cyanophenyl)-7-methyl-4-oxo-4H-pyrido[1,2-a]pyrimidin-9-yl)ethyl)amino)benzoic acid]",3.37,> 10
"Cc1cc(C(C)Nc2ccccc2C(=O)O)c2nc(-c3cccc(C#N)c3)cc(=O)n2c1 (stereo not shown) [Example 11-398, 2-((1-(2-(3-cyanophenyl)-7-methyl-4-oxo-4H-pyrido[1,2-a]pyrimidin-9-yl)ethyl)amino)benzoic acid]",> 10,> 10
"Cc1cc(C(C)Nc2ccccc2C(=O)O)c2nc(-c3ccncc3)cc(=O)n2c1 (stereo not shown) [Example 11-400, 2-((1-(7-methyl-4-oxo-2-(pyridin-4-yl)-4H-pyrido[1,2-a]pyrimidin-9-yl)ethyl)amino)benzoic acid]",1.05,> 10
"Cc1cc(C(C)Nc2ccccc2C(=O)O)c2nc(-c3cccnc3)cc(=O)n2c1 (stereo not shown) [Example 11-401, 2-((1-(7-methyl-4-oxo-2-(pyridin-3-yl)-4H-pyrido[1,2-a]pyrimidin-9-yl)ethyl)amino)benzoic acid]",3.27,> 10
"Cc1cc(C(C)Nc2ccccc2C(=O)O)c2nc(-c3ccccc3)c(C)c(=O)n2c1 (stereo not shown) [Example 11-403, 2-((1-(3,7-dimethyl-4-oxo-2-phenyl-4H-pyrido[1,2-a]pyrimidin-9-yl)ethyl)amino)benzoic acid]",1.06,> 10
"Cc1cc([C@H](C)Nc2ccccc2C(=O)O)c2nc(N3Cc4ccccc4C3)cc(=O)n2c1 [Example 11-406, (S)-2-((1-(2-(isoindolin-2-yl)-7-methyl-4-oxo-4H-pyrido[1,2-a]pyrimidin-9-yl)ethyl)amino)benzoic acid]",0.864,> 10
"Cc1cc(C(C)Nc2ccccc2C(=O)O)c2nc(N(C)C)cc(=O)n2c1 (stereo not shown) [Example 11-408, 2-((1-(2-(dimethylamino)-7-methyl-4-oxo-4H-pyrido[1,2-a]pyrimidin-9-yl)ethyl)amino)benzoic acid]",> 10,> 10
"CCC(O)c1cc(C)cn2c(=O)cc(N3CCCCC3)nc12 (stereo not shown) [Example 11-410, 9-(1-hydroxypropyl)-7-methyl-2-(piperidin-1-yl)-4H-pyrido[1,2-a]pyrimidin-4-one]",> 10,> 10
"CCC(Nc1ccccc1C(=O)O)c1cc(C)cn2c(=O)cc(N3CCCCC3)nc12 (stereo not shown) [Example 11-411, 2-((1-(7-methyl-4-oxo-2-(piperidin-1-yl)-4H-pyrido[1,2-a]pyrimidin-9-yl)propyl)amino)benzoic acid]",> 10,> 10

# Results, then the molecule that gave them:
IC50 [1] [µM],IC50 [2] [µM],SMILES
4.32,> 10,"Cc1cc(C(C)Nc2ccccc2C(=O)O)c2nc(N3CCc4cnn(C)c4C3)cc(=O)n2c1 (stereo not shown) [Example 11-382, 2-((1-(7-methyl-2-(1-methyl-1,4,5,7-tetrahydro-6H-pyrazolo[3,4-c]pyridin-6-yl)-4-oxo-4H-pyrido[1,2-a]pyrimidin-9-yl)ethyl)amino)benzoic acid]"
> 10,> 10,"Cc1cc(C(C)NC(C)(C)CC(=O)O)c2nc(N3CCCCC3)cc(=O)n2c1 (stereo not shown) [Example 11-387, 3-methyl-3-((1-(7-methyl-4-oxo-2-(piperidin-1-yl)-4H-pyrido[1,2-a]pyrimidin-9-yl)ethyl)amino)butanoic acid]"
> 10,> 10,"Cc1cc(C(C)Nc2ccc(C(=O)O)cc2)c2nc(N3CCCCC3)cc(=O)n2c1 (stereo not shown) [Example 11-388, 4-((1-(7-methyl-4-oxo-2-(piperidin-1-yl)-4H-pyrido [1,2-a]pyrimidin-9-yl)ethyl)amino)benzoic acid]"
> 10,> 10,"Cc1cc(C(C)Nc2cccc(C(=O)O)c2)c2nc(N3CCCCC3)cc(=O)n2c1 (stereo not shown) [Example 11-389, 3-((1-(7-methyl-4-oxo-2-(piperidin-1-yl)-4H-pyrido[1,2-a]pyrimidin-9-yl)ethyl)amino)benzoic acid]"
4.04,> 10,"COc1ccc(-c2cc(=O)n3cc(C)cc(C(C)Nc4ccccc4C(=O)O)c3n2)cc1 (stereo not shown) [Example 11-392, 2-((1-(2-(4-methoxyphenyl)-7-methyl-4-oxo-4H-pyrido[1,2-a]pyrimidin-9-yl)ethyl)amino)benzoic acid]"
4.38,> 10,"Cc1cc(C(C)Nc2ccccc2C(=O)O)c2nc(-c3ccc(Cl)cc3)cc(=O)n2c1 (stereo not shown) [Example 11-396, 2-((1-(2-(4-chlorophenyl)-7-methyl-4-oxo-4H-pyrido[1,2-a]pyrimidin-9-yl)ethyl)amino)benzoic acid]"
> 10,> 10,"Cc1cc(C(C)Nc2ccccc2C(=O)O)c2nc(-c3ccccc3C#N)cc(=O)n2c1 (stereo not shown) [Example 11-399, 2-((1-(2-(2-cyanophenyl)-7-methyl-4-oxo-4H-pyrido[1,2-a]pyrimidin-9-yl)ethyl)amino)benzoic acid]"
6.87,> 10,"Cc1cc(C(C)Nc2ccccc2C(=O)O)c2nc(-c3ccccn3)cc(=O)n2c1 (stereo not shown) [Example 11-402, 2-((1-(7-methyl-4-oxo-2-(pyridin-2-yl)-4H-pyrido[1,2-a]pyrimidin-9-yl)ethyl)amino)benzoic acid]"
> 10,> 10,"Cc1cc(C(C)Nc2ccccc2C(=O)O)c2nc(-c3ccn(C)n3)cc(=O)n2c1 (stereo not shown) [Example 11-404, 2-((1-(7-methyl-2-(1-methyl-1H-pyrazol-3-yl)-4-oxo-4H-pyrido[1,2-a]pyrimidin-9-yl)ethyl)amino)benzoic acid]"
8.38,> 10,"Cc1cc(C(C)Nc2ccccc2C(=O)O)c2nc(-c3cnn(C)c3)cc(=O)n2c1 (stereo not shown) [Example 11-405, 2-((1-(7-methyl-2-(1-methyl-1H-pyrazol-4-yl)-4-oxo-4H-pyrido[1,2-a]pyrimidin-9-yl)ethyl)amino)benzoic acid]"
> 10,> 10,"Cc1cc(C(C)Nc2ccccc2C(=O)O)c2nc(N3CCC3)cc(=O)n2c1 (stereo not shown) [Example 11-407, 2-((1-(2-(azetidin-1-yl)-7-methyl-4-oxo-4H-pyrido[1,2-a]pyrimidin-9-yl)ethyl)amino)benzoic acid]"
> 10,> 10,"Cc1cc(C#N)c2nc(N3CCCCC3)cc(=O)n2c1 [Example 11-409, 7-methyl-4-oxo-2-(piperidin-1-yl)-4H-pyrido[1,2-a]pyrimidine-9-carbonitrile]"
> 10,> 10,Cc1cc(CNc2ccccc2C(=O)O)c2nc(N3CCCCC3)cc(=O)n2c1 [Example 11-412]
1.65,> 10,"Cc1cc(C(C)Nc2ccccc2C(=O)O)c2nc(N3CCCCC3)c(C3CC3)c(=O)n2c1 (stereo not shown) [Example 11-413, 2-((1-(3-cyclopropyl-7-methyl-4-oxo-2-(piperidin-1-yl)-4H-pyrido[1,2-a]pyrimidin-9-yl)ethyl)amino)benzoic acid]"
1.82,> 10,"Cc1cc([C@H](C)Nc2ccccc2C(=O)O)c2nc(N3CCCCC3)c(C(F)(F)F)c(=O)n2c1 [Example 11-414, (S)-2-((1-(7-methyl-4-oxo-2-(piperidin-1-yl)-3-(trifluoromethyl)-4H-pyrido[1,2-a]pyrimidin-9-yl)ethyl)amino)benzoic acid]"
